Here are results for four molecules from patent US8021853B2, “Inhibition of the β3 subunit of L-type Ca2+ channels” (priority 2002, dated 2011).

The test system of experiment [1] is islets from both wild type and β3−/− mice. Put plainly: glucose-induced [Ca2+]i oscillations in islets/β-cells (fura-2 340/380 nm fluorescence ratio). Type of experiment: cell-based, mouse.
Source text: Changes in [Ca^2+]i were next evaluated. […] The changes in [Ca^2+]i subsequent to the initial increase were categorized into three groups: slow oscillations (period of approximately 160 seconds), fast oscillations (period of approximately 10 seconds) and no oscillations. In wild type mice, 43 recordings (43 islets) were made.
Experiment [2] has as its system islets from both β3−/− and wild type mice. Put plainly: carbamylcholine-induced activation of PLC, [Ca2+]i in islets. Type of experiment: cell-based, mouse. The method, then:
(§1) The whole-cell configuration of the patch-clamp technique was performed as follows: pipettes were pulled from borosilicate glass, coated with Sylgard near the tips and fire-polished. The pipettes ([…]) were filled with a solution containing 150 mM N-methyl-D-glucamine, 125 mM HCl, 1.2 mM MgCl2, 10 mM EGTA, 5 mM HEPES and 3 mM MgATP. pH was adjusted to 7.15 with KOH. Bath buffer contained (in mM) NaCl 138, KCl 5.6, MgCl2 1.2, CaCl2 10, HEPES 5 and pH 7.4. Islets or isolated cells were loaded with 2 μM fura 2/AM for 30 min in KRBB. For measurements of CCh (carbamylcholine) effects in Ca^2+-free medium, KRBB containing no Ca^2+ and 100 μM EGTA was used. After loading, a single islet or cells attached to a coverslip were transferred to an open perfusion chamber and maintained at 37° C. Measurements of 340/380 nm fluorescence ratio, reflecting [Ca^2+]i, were done as described in the art (Zaitsev, S. V. et al. 1995, Proc. Natl. Acad. Sci. USA 92:9712-9716). Time constant of decay in [Ca^2+]i was calculated with a double exponential decay equation using quasi Newton algorithm (Statistica for Windows, v. 5.0, StatSoft, Inc., USA). For measurements of [Ca^2+]ER, the low affinity Ca^2+-sensitive fluorescent dye X-Rhod-5N (Molecular Probes) was employed. […] were incubated with 5 μM X-Rhod-5N/AM for 1 hour at 4° C. to ensure dye loading into intracellular compartments. […]

For experiment [3], the system named is islets from β3−/− mice compared to wild type mice. Briefly: increase in [Ca2+]i on addition of 2.5 mM extracellular Ca2+ after depletion of the Ca2+-pool. Type of experiment: cell-based, mouse. The conditions noted are these: 2 μM; Ca2+-pool depleted. The method, then:
as §1

The test system of experiment [4] is islets from both wild type and β3−/− mice. The conditions noted are these: treatment of β-cells; Roe et al. 1998; cited from earlier work.
Experiment [5] deals with islets from control and β3−/− mice. Put plainly: insulin release in response to glucose from isolated islets. Type of experiment: cell-based, mouse. Conditions: islets treated with thapsigargin. The method, then: Islets of Langerhans were isolated by collagenase digestion and maintained overnight in RPMI 1640 culture medium (Flow Laboratories, UK). Single cells, obtained by shaking the islets in Ca^2+-free medium, were seeded into plastic dishes. For measurements of insulin release, islets were pre-incubated in Krebs-Ringer bicarbonate buffer (KRBB) for 30 min at 37° C. Groups of 3 islets were transferred to tubes containing 0.3 ml KRBB with test substances and incubated for another 30 min at 37° C. The incubation was terminated by cooling the samples on ice. Samples were stored at −20° C. until insulin was analyzed.
To further verify this notion, changes in [Ca^2+]i and insulin exocytosis were measured simultaneously, applying a depolarizing pulse protocol mimicking an oscillatory versus a monophasic increase in [Ca^2+]i.

SMILES strings stand for the structures.

Take `NCCOB(c1ccccc1)c1ccccc1` [2-APB, 2-aminoethoxydiphenyl borane]: the “effect on [Ca2+]i oscillations (blocking the InsP3-receptor)” value in experiment [1] (β-cells from β3−/− mice) is “transformed [Ca^2+]i oscillations from fast into slow”.

`C[N+](C)(C)CCOC(N)=O.[Cl-]` [Carbamylcholine, carbamylcholine]: the “effect on [Ca2+]i” value in experiment [2] was “produced a transient increase in [Ca^2+]i”.

Take `[Gd]` [gadolinium]: the “effect on the increase in [Ca2+]i after addition of 2.5 mM extracellular Ca2+” value in experiment [3] is on record as “did not affect”.

`C/C=C(/C)C(=O)O[C@H]1C(C)=C2[C@H]([C@@H]1OC(=O)CCCCCCC)[C@@](C)(OC(C)=O)C[C@H](OC(=O)CCC)[C@@]1(O)[C@H]2OC(=O)[C@@]1(C)O` [thapsigargin]: the “effect on [Ca2+]i oscillations” value in experiment [4] is “transform [Ca^2+]i oscillations into a monophasic elevation in [Ca^2+]i”. For the same molecule, in experiment [1] (1 μM, 30 min preincubation, islets from both wild type and β3−/− mice), the “effect on glucose-induced oscillations in [Ca2+]i” value is “prevented glucose-induced oscillations in [Ca^2+]i”. In addition, the “insulin release in response to glucose, control versus β3−/− mice” value in experiment [5] is recorded as “no different”.
